Here are results for 23 compounds from ChEMBL document CHEMBL1133506, “3-(3,5-Dimethoxyphenyl)-1,6-naphthyridine-2,7-diamines and related 2-urea derivatives are potent and selective inhibitors of the FGF receptor-1 tyrosine kinase” (J Med Chem, 2000).

Assay [1] has as its target T1, Fibroblast growth factor receptor 1 (Homo sapiens, UniProt P11362).
Description: Inhibition of the phosphorylation of a random glutamate-tyrosine (4:1) copolymer by isolated Fibroblast growth factor receptor 1.
In assay [2] the target is Platelet-derived growth factor receptor beta (Mus musculus, UniProt P05622).
Description: Inhibition of the phosphorylation of a random glutamate-tyrosine (4:1) copolymer by isolated mouse Platelet-derived growth factor protein.
The test system of assay [3] is Ovarian cancer cell line. Briefly: Inhibition of human ovarian carcinoma (A90) FGF-R overexpressing cell proliferation.
Assay [4] deals with C6. Briefly: Inhibition of PDGF-dependent rat glioma C6 cell proliferation.
The test system of assay [5] is HUVEC. The experiment in a line: Inhibition of in vitro cell Human umbilical vein endothelial (HUVEC) cell proliferation.
For assay [6], the system named is HUVEC. Briefly: Inhibition of Matrigel invasion assay in HUVEC cells. It is filed as functional, cell-based. Conditions: Homo sapiens.
Assay [7] has as its system HUVEC. The experiment in a line: (§1) Inhibition of microcapillary growth in HUVEC cells. Format: functional, cell-based. The settings on record: Homo sapiens.
Assay [8] relates to HUVEC. Described as §1. Conditions: Homo sapiens.
The target of assay [9] is Proto-oncogene tyrosine-protein kinase Src (Gallus gallus) (UniProt P00523). Briefly: Inhibition of the phosphorylation of a random glutamate-tyrosine (4:1) copolymer by isolated avian c-Src protein.
The target of assay [10] is T1, Fibroblast growth factor receptor 1. Briefly: Inhibition of bFGF-mediated tyrosine phosphorylation. Format: functional.
The test system of assay [11] is M5076. The experiment in a line: Weight change in murine M5076 sarcoma tumor at 200 mg/kg peroral dose days 8-16. It is filed as functional, organism-based. More on the design: dose 200 mg/kg. The settings on record: Mus musculus.
For assay [12], the system named is M5076. Briefly: Difference in days for treated (T) and control (C) tumors to reach 750 mg in murine M5076 sarcoma tumor at 200 mg/kg. Format: functional, Mus musculus.
Assay [13] concerns Mus musculus. The experiment in a line: Difference in days for the treated (T) and control (C) tumors to reach 750 mg in lewis lung murine tumor at 200 mg/kg. Format: functional.
Assay [14] has as its system Mus musculus. The experiment in a line: Difference in days for treated (T) and control (C) tumors to reach 750 mg in mammary 16/c murine tumor at 200 mg/kg. It is filed as functional.
Assay [15] has as its system Mus musculus. The experiment in a line: Difference in days for treated (T) and control (C) tumors to reach 750 mg in mammary 16/c murine tumor at 80 mg/kg. It is filed as functional.
Assay [16] deals with M5076. Briefly: Ratio of treated to control tumor mass on last therapy day in M5076 sarcoma murine tumor at 200 mg/kg. Format: functional, Mus musculus.
Assay [17] has as its system Mus musculus. The experiment in a line: Ratio of treated to control tumor mass on last therapy day in lewis lung murine tumor at 200 mg/kg dose. Format: functional.
Assay [18] concerns Mus musculus. Briefly: Ratio of treated to control tumor mass on last therapy day in mammary 16/c murine tumor at 200 mg/kg dose. It is filed as functional.
In assay [19] the test system is Mus musculus. Briefly: Weight change in mammary 16/c murine tumor at 200 mg/kg peroral dose for days 1-9. Format: functional, organism-based. Details: dose 200 mg/kg.
The test system of assay [20] is Mus musculus. Briefly: Weight change in mammary 16/c murine tumor at 80 mg/kg peroral dose for schedule q12hx2, days 1-9. Conditions: route oral. Format: functional.
Assay [21] deals with Lewis lung carcinoma cell line. Briefly: Weight change in lewis lung murine tumor at 200 mg/kg peroral dose for days 4-12. It is filed as functional, Mus musculus. Conditions: route oral.

T1 sequence (P11362 whole entry): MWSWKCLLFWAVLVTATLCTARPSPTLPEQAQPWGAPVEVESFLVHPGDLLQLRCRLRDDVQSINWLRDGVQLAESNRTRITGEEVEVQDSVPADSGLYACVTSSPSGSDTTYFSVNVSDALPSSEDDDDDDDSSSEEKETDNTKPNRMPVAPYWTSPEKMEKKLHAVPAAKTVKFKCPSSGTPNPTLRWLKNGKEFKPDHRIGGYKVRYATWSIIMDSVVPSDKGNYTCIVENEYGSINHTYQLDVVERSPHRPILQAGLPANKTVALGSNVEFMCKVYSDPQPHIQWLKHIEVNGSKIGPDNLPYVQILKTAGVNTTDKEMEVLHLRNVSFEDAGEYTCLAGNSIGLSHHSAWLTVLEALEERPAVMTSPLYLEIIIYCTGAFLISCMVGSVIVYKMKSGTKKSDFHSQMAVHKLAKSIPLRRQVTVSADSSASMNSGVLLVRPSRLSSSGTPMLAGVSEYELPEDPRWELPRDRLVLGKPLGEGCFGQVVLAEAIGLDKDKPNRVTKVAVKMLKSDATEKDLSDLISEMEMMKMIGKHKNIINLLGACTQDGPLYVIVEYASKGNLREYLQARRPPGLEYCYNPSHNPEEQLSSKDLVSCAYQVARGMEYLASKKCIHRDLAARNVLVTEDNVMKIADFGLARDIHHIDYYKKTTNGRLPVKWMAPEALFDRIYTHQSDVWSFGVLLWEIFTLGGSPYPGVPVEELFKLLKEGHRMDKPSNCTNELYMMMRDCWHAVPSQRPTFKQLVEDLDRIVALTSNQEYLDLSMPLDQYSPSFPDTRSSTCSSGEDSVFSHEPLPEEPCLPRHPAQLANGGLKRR
Platelet-derived growth factor receptor beta, sequence (P05622 whole entry): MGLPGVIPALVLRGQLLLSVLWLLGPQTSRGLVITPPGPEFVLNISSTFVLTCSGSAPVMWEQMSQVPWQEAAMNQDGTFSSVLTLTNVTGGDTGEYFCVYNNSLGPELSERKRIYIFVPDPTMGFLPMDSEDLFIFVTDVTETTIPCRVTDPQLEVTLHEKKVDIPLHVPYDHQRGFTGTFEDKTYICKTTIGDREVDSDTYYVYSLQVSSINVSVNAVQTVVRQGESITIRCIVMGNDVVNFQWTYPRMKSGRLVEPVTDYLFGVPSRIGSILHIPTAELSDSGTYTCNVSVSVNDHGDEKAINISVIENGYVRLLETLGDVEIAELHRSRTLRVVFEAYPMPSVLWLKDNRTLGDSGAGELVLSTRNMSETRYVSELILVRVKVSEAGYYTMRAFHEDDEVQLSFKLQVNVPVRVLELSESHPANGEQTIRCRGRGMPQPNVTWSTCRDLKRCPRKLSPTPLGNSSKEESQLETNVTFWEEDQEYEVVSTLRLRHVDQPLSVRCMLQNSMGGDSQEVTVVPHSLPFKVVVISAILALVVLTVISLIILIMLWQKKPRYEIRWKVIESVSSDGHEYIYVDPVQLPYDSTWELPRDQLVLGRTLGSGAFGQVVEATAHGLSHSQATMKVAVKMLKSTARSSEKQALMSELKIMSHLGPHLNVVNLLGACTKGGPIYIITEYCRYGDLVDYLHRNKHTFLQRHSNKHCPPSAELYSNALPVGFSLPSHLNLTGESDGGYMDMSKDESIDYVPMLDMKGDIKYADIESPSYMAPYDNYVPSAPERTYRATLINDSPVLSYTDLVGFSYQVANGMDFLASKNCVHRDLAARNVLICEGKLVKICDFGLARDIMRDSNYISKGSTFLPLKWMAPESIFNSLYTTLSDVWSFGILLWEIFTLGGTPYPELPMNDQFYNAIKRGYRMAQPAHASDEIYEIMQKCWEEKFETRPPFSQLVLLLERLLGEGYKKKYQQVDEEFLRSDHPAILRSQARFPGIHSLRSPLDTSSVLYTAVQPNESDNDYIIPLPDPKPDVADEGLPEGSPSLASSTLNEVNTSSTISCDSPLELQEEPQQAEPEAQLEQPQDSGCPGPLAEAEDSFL

The IC50 is the midpoint of a concentration-inhibition curve. Low values mean greater potency, high ones weaker potency. In the case of `CC(C)(C)NC(=O)Nc1nc2nc(N)ncc2cc1-c1c(Cl)cccc1Cl`, the IC50 in assay [1] worked out at 130 nM; in assay [2] it was 1100 nM.

`COc1cc(OC)cc(-c2cc3cnc(N)nc3nc2N)c1`: the values for the IC50 in assay [1] and in assay [2] were 230 nM and more than 50000 nM, respectively.

With `COc1cc(OC)cc(-c2cc3cnc(N)nc3nc2NC(=O)NC(C)(C)C)c1`, the IC50 is 15000 nM in assay [3]; more than 25000 nM in [4]; 580 nM in [5]; 1100 nM in assay [6]; 100 nM in assay [7]; 600 nM in assay [1].

For the compound `COc1cc(OC)cc(-c2cc3cnc(NC(=O)C(F)(F)F)cc3nc2N)c1`, the IC50 in assay [3] is 17000 nM; in [4], 9000 nM; in assay [5], 4900 nM; in assay [1] it was 61 nM; in assay [2] it was more than 50000 nM.

Regarding `CC(C)(C)NC(=O)Nc1nc2cc(N)ncc2cc1-c1ccccc1`, the results for the IC50 in assay [1] and in assay [2] were 1900 nM and 2600 nM, respectively.

As for `COc1cc(OC)cc(-c2cc3cnc(NC(=O)NC(C)(C)C)cc3nc2NC(=O)NC(C)(C)C)c1`, the IC50 was 11000 nM in [3]; 13000 nM in assay [4]; 17 nM in [5]; 10 nM in [7]; 160 nM in assay [1]; more than 50000 nM in [2].

Take `COc1cc(OC)cc(-c2cc3cnc(NCCCN4CCOCC4)cc3nc2NC(=O)NC(C)(C)C)c1`: the IC50 in assay [3] turned out to be 920 nM; in assay [4], 3100 nM; in [5], 85 nM; in assay [8] it was 1 nM; in assay [2], 45000 nM.

In [9], `Nc1ncc2cc(-c3c(Cl)cccc3Cl)c(N)nc2n1` displayed an IC50 of 210 nM.

Take `CNC(=O)Nc1nc2cc(N)ncc2cc1-c1cc(OC)cc(OC)c1`: the IC50 in [1] is 95 nM; in assay [2], more than 50000 nM.

As for `Cn1c(SSc2c(C(=O)Nc3ccccc3)c3ccccc3n2C)c(C(=O)Nc2ccccc2)c2ccccc21`, the IC50 in assay [10] is 4500 nM.

Consider `Cc1c[nH]c(/C=C2\C(=O)Nc3ccccc32)c1CCC(=O)O`, for which, in assay [10], the midpoint of inhibition, the IC50, lay at 20000 nM.

As to `CCNC(=O)Nc1nc2cc(N)ncc2cc1-c1c(Cl)cccc1Cl`, the IC50 in assay [1] worked out at 150 nM; in [2] it was 11000 nM.

With `COC(=O)C1=C(c2ccccc2)c2ccccc2C1=O`, the IC50 in [10] came out at 5100 nM.

`COc1cc(OC)cc(-c2cc3cnc(N)cc3nc2NC(=O)Nc2ccccc2)c1`: the values for the concentration for half-maximal inhibition (IC50) in assay [1] and in [2] were 510 nM and more than 50000 nM, respectively.

As to `COc1cc(OC)cc(-c2cc3cnc(N)cc3nc2N)c1`, the IC50 was 17000 nM in assay [3]; 8900 nM in assay [4]; 820 nM in assay [5]; 200 nM in assay [1]; more than 50000 nM in assay [2].

With `CCNC(=O)Nc1nc2cc(N)ncc2cc1-c1ccccc1`, the IC50 in [1] amounted to 1300 nM; in assay [2], 7700 nM.

In the case of `Nc1cc2nc(N)c(-c3ccccc3)cc2cn1`, the IC50 in assay [1] and in [2] was 17000 nM each time.

Regarding `Nc1cc2nc(N)c(-c3c(Cl)cccc3Cl)cc2cn1`, the IC50 was determined as 2800 nM in [1] and 35000 nM in [2].

As to `COc1cc(OC)cc(-c2cc3cnc(N)cc3nc2NC(=O)NC(C)(C)C)c1`, the half-inhibitory concentration (IC50) in [3] is 1200 nM; in [4], 8500 nM; in assay [5], 5.5 nM; in [6], more than 10000 nM; in assay [7], 100 nM; in assay [1] it was 42 nM. This compound gave an IC50 in assay [2] of 38000 nM.

A word on the T/C: it is the result in the treated group divided by that in the control group, in per cent. For the compound `COc1cc(OC)cc(-c2cc3cnc(NC(C)=O)cc3nc2NC(=O)NC(C)(C)C)c1`, the concentration for half-maximal inhibition (IC50) amounted to 12000 nM in [3]; 650 nM in [4]; 4 nM in [5]; 7 nM in assay [6]; 0.01 nM in [7]; 25 nM in assay [1]. The same compound yielded an IC50 in [2] of 4700 nM. The Weight change entry in assay [11] is on record as “Weight gain”; in [19] it was “Weight gain”; in assay [20], -0.7 g; in [21], -0.4 g. In addition, the T-C in assay [12] worked out at 1 days; in assay [13] it was 0 days; in assay [14], 11.3 days; in assay [15] it was 10.8 days. Besides, the T/C stood at 78% in assay [16], 109% in assay [17] and 0% in assay [18].

`CCNC(=O)Nc1nc2nc(N)ncc2cc1-c1c(Cl)cccc1Cl` came in with a concentration for half-maximal inhibition (IC50) in assay [1] of 130 nM.

On to `CCNC(=O)Nc1nc2cc(N)ncc2cc1-c1cc(OC)cc(OC)c1`, for which the half-inhibitory concentration (IC50) in assay [3] was 9300 nM; in assay [4] it was 8000 nM; in assay [5], 170 nM; in assay [1], 29 nM; in [2] it was more than 50000 nM.

For `CC(C)(C)NC(=O)Nc1nc2cc(N)ncc2cc1-c1c(Cl)cccc1Cl`, the IC50 in assay [1] came to 120 nM; in assay [2], 1800 nM.
